Peptide text beside a SMILES is read from it.
Experiments:
[1] = tested on: collagen Iα1 (Collagen, type I, alpha 1) gene; assay: mRNA expression of extracellular matrix component genes (RT-PCR); format: cell-based, mouse; settings: NIH3T3 cells; peptide at 10 µM, 50 µM, and 100 µM; 24 hours; FIG. 1
Procedure: (§1) The effect of the peptide prepared in Preparation Example 1 on expression of extracellular matrix (ECM) components was evaluated by measuring mRNA expression levels of the genes of the respective components.
(§2) NIH3T3 cells (a mouse fibroblast cell line) were seeded in a 6-well plate at a density of 3 x 10^5 cells/well and cultured for 24 hours. The cultured cells were washed once with serum-free DMEM. The peptide prepared in Preparation Example 1 was mixed into serum-free DMEM at each concentration to prepare medium solutions containing the peptide at 10 µM, 50 µM, and 100 µM, and the medium solutions were added to the cells. The cells were cultured for 24 hours in a CO2 incubator at 37°C and washed twice with PBS, and then RNA was isolated using easy blue (iNtRON, Cat. No.: 17061, Korea). The amount of RNA was quantified, 1,000 ng of RNA was added per tube, and then cDNA synthesis was performed using an RT kit (enzynomics, Cat. No.: RT200, Korea). Thereafter, PCR was performed using a PCR kit (enzynomics, Cat. No.: P581T, Korea), with collagen Iα1, fibronectin, or elastin gene as a detection target.

[2] = tested on: elastin gene; assay: as above; format: cell-based, mouse; settings: NIH3T3 cells; peptide at 10 µM, 50 µM, and 100 µM; 24 hours; FIG. 1
Procedure: as §1, §2

[3] = tested on: fibronectin gene; assay: as above; format: cell-based, mouse; settings: NIH3T3 cells; peptide at 10 µM, 50 µM, and 100 µM; 24 hours; FIG. 1
Procedure: as §1, §2

[4] = tested on: AQP3 (Aquaporin 3) gene; assay: mRNA expression of skin barrier-related genes (RT-PCR); format: cell-based, human; settings: HaCaT cells; peptide at 10 µM, 50 µM, and 100 µM; 24 hours; FIG. 2
Procedure: (§3) The effect of the peptide prepared in Preparation Example 1 on expression of genes related to a skin barrier was evaluated.
as §2, with “HaCaT” for “NIH3T3”, “human keratinocyte” for “mouse fibroblast”, “SIRT1 (Sirtuin 1)” for “collagen Iα1, fibronectin,”, “AQP3 (Aquaporin 3)” for “elastin”

[5] = tested on: SIRT1 (Sirtuin 1) gene; assay: as above; format: cell-based, human; settings: HaCaT cells; peptide at 10 µM, 50 µM, and 100 µM; 24 hours; FIG. 2
Procedure: as §3
as §2, with “HaCaT” for “NIH3T3”, “human keratinocyte” for “mouse fibroblast”, “SIRT1 (Sirtuin 1)” for “collagen Iα1, fibronectin,”, “AQP3 (Aquaporin 3)” for “elastin”

[6] = tested on: reactive oxygen species (ROS) in NIH3T3 cells; assay: Inhibition of UV-induced generation of reactive oxygen species (DCFH-DA, FACS); format: cell-based, mouse; settings: UVA at 6 J/cm^2, peptide at 10 µM, 50 µM, and 100 µM, 24 hours after irradiation, FIG. 3A
Procedure: (§4) NIH3T3 cells (a mouse fibroblast cell line) and HaCaT cells (a human keratinocyte cell line) were seeded in a 6-well plate at a density of 5 x 10^5 cells/well and cultured for 24 hours. The cultured cells were washed once with serum-free DMEM. The peptide prepared in Preparation Example 1 was mixed into serum-free DMEM at each concentration to prepare medium solutions containing the peptide at 10 µM, 50 µM, and 100 µM, and the medium solutions were added to the cells. The cells to which the peptide was added were cultured for 1 hour in a CO2 incubator at 37°C. After the culture, the medium was removed from the cells, and PBS was added. Using a UV irradiator (VILBER LOURMAT, Cat. No.: 3102-BSU, France), NIH3T3 cells were irradiated with UVA at 6 J/cm^2, and HaCaT cells were irradiated with UVB at 15 mJ/cm^2. After PBS was removed, the above-described peptide-containing medium solutions at the respective concentrations were added again to the cells. The cells to which the peptide was added were cultured for 24 hours in a CO2 incubator at 37°C. After treatment with 10 µM DCFH-DA (2',7'-dichlorofluorescein diacetate), the cells were wrapped in foil and cultured for 30 minutes in a CO2 incubator at 37°C. Subsequently, the cells were washed twice with PBS and then collected, and fluorescence values were measured by FACS.

[7] = tested on: reactive oxygen species (ROS) in HaCaT cells; assay: as above; format: cell-based, human; settings: UVB at 15 mJ/cm^2, peptide at 10 µM, 50 µM, and 100 µM, 24 hours after irradiation, FIG. 3B
Procedure: as §4

[8] = tested on: collagen Iα1 gene; assay: Restoration of expression of extracellular matrix genes reduced by UV irradiation (RT-PCR); format: cell-based, mouse; settings: NIH3T3 cells; UVA at 6 J/cm^2; peptide at 10 µM, 50 µM, and 100 µM; 6 hours after irradiation; FIG. 4
Procedure: (§5) Whether the peptide of SEQ ID NO: 1 prepared in Preparation Example 1 restores expression levels of extracellular matrix genes reduced by UV irradiation was evaluated.
(§6) NIH3T3 cells (a mouse fibroblast cell line) were seeded in a 6-well plate at a density of 5 x 10^5 cells/well and cultured for 24 hours. The cultured cells were washed once with serum-free DMEM. The peptide prepared in Preparation Example 1 was mixed into serum-free DMEM at each concentration to prepare medium solutions containing the peptide at 10 µM, 50 µM, and 100 µM, and the medium solutions were added to the cells. The cells to which the peptide was added were cultured for 1 hour in a CO2 incubator at 37°C. After the cells were cultured, the medium was removed from the cells, and PBS was added. Using a UV irradiator (VILBER LOURMAT, Cat. No.: 3102-BSU, France), the cells were irradiated with UVA at 6 J/cm^2. After PBS was removed, the above-described peptide-containing medium solutions at the respective concentrations were added again to the cells. The cells to which the peptide was added were cultured for 6 hours in a CO2 incubator at 37°C. After the cells were washed twice with PBS, RNA was isolated using easy blue (iNtRON, Cat. No.: 17061, Korea). The amount of RNA was quantified, 1,000 ng of RNA was added per tube, and then cDNA synthesis was performed using an RT kit (enzynomics, Cat. No.: RT200, Korea). Subsequently, PCR was performed using a PCR kit (enzynomics, Cat. No.: P581T, Korea), with collagen Iα1, fibronectin, or elastin gene as a detection target.

[9] = tested on: elastin gene; assay: as above; format: cell-based, mouse; settings: NIH3T3 cells; UVA at 6 J/cm^2; peptide at 10 µM, 50 µM, and 100 µM; 6 hours after irradiation; FIG. 4
Procedure: as §5, §6

[10] = tested on: fibronectin gene; assay: as above; format: cell-based, mouse; settings: NIH3T3 cells; UVA at 6 J/cm^2; peptide at 10 µM, 50 µM, and 100 µM; 6 hours after irradiation; FIG. 4
Procedure: as §5, §6

[11] = tested on: AQP3 gene; assay: Restoration of expression of skin barrier-related genes reduced by UV irradiation (RT-PCR); format: cell-based, human; settings: HaCaT cells; UVB at 20 mJ/cm^2; peptide at 10 µM, 50 µM, and 100 µM; 4 hours after irradiation; FIG. 5
Procedure: (§7) Whether the peptide of SEQ ID NO: 1 prepared in Preparation Example 1 restores expression levels of skin barrier-related genes reduced by UV irradiation was evaluated.
as §6, with “HaCaT cells” for “NIH3T3 cells”, “(a human keratinocyte” for “(a mouse fibroblast”, “with UVB” for “with UVA”, “at 20 mJ/cm^2.” for “at 6 J/cm^2.”, “for 4” for “for 6”, “Korea). […]” for “Korea). Subsequently, PCR was performed using a PCR kit (enzynomics, Cat. No.: P581T, Korea), with collagen Iα1, fibronectin, or elastin gene as a detection target.”

[12] = tested on: SIRT1 gene; assay: as above; format: cell-based, human; settings: HaCaT cells; UVB at 20 mJ/cm^2; peptide at 10 µM, 50 µM, and 100 µM; 4 hours after irradiation; FIG. 5
Procedure: as §7
as §6, with “HaCaT cells” for “NIH3T3 cells”, “(a human keratinocyte” for “(a mouse fibroblast”, “with UVB” for “with UVA”, “at 20 mJ/cm^2.” for “at 6 J/cm^2.”, “for 4” for “for 6”, “Korea). […]” for “Korea). Subsequently, PCR was performed using a PCR kit (enzynomics, Cat. No.: P581T, Korea), with collagen Iα1, fibronectin, or elastin gene as a detection target.”

[13] = tested on: MMP-1 in NIH3T3 cells; assay: Inhibition of UV-induced MMP-1 expression (Western blot); format: cell-based, mouse; settings: UVA at 6 J/cm^2, peptide at 10 µM, 50 µM, and 100 µM, 24 hours after irradiation, FIG. 6A
Procedure: (§8) The effect of the peptide of SEQ ID NO: 1 prepared in Preparation Example 1 on MMP-1 expression induced by UV was evaluated.
(§9) NIH3T3 cells (a mouse fibroblast cell line) and HaCaT cells (a human keratinocyte cell line) were seeded in a 6-well plate at a density of 5 x 10^5 cells/well and cultured for 24 hours. The cultured cells were washed once with serum-free DMEM. The peptide prepared in Preparation Example 1 was mixed into serum-free DMEM at each concentration to prepare medium solutions containing the peptide at 10 µM, 50 µM, and 100 µM, and the medium solutions were added to the cells. The cells to which the peptide was added were cultured for 1 hour in a CO2 incubator at 37°C. After the cells were cultured, the medium was removed from the cells, and PBS was added. Using a UV irradiator (VILBER LOURMAT, Cat. No.: 3102-BSU, France), NIH3T3 cells were irradiated with UVA at 6 J/cm^2, and HaCaT cells were irradiated with UVB at 15 mJ/cm^2. After PBS was removed, the above-described peptide-containing medium solutions at the respective concentrations were added again to the cells. The cells to which the peptide was added were cultured for 24 hours in a CO2 incubator at 37°C. […] After treatment with an ECL solution (GE Healthcare, Cat. No.: RPN2232, USA), expression levels were analyzed using an ImageQuant 800 instrument (Cytiva, Cat. No.: 29-3994-81, USA).

[14] = tested on: MMP-1 in HaCaT cells; assay: as above; format: cell-based, human; settings: UVB at 15 mJ/cm^2, peptide at 10 µM, 50 µM, and 100 µM, 24 hours after irradiation, FIG. 6B
Procedure: as §8, §9

In the case of `CC(C)C[C@H](NC(=O)[C@H](CC(C)C)NC(=O)[C@@H](N)CCCNC(=N)N)C(=O)N[C@@H](CC(N)=O)C(=O)O` [peptide of SEQ ID NO: 1, RLLN] (H-RLLN-OH), the “mRNA expression level of collagen Iα1 (Collagen, type I, alpha 1) gene” value [1] is reported as “increased”, the “mRNA expression level of elastin gene” value [2] is reported as “increased” and the “mRNA expression level of fibronectin gene” value [3] is reported as “increased”. The “mRNA expression level of AQP3 (Aquaporin 3) gene” value [4] was “increased”, the “mRNA expression level of SIRT1 (Sirtuin 1) gene” value [5] was “increased” and the “intracellular ROS levels increased by UV irradiation” value [6] was “reduced”. For the same compound, the “intracellular ROS levels increased by UV irradiation” value [7] was “reduced”, the “mRNA expression level of collagen Iα1 gene reduced by UV irradiation” value [8] was “increased again” and the “mRNA expression level of elastin gene reduced by UV irradiation” value [9] was “increased again”. The “mRNA expression level of fibronectin gene reduced by UV irradiation” value [10] was “increased again”, the “mRNA expression level of AQP3 gene reduced by UV irradiation” value [11] was “restored” and the “mRNA expression level of SIRT1 gene reduced by UV irradiation” value [12] was “restored”. For the same compound, the “increase in MMP-1 expression induced by UV irradiation” value [13] was “inhibited” and the “increase in MMP-1 expression induced by UV irradiation” value [14] was “inhibited”.
